Measurements: patent US11324717B2, “Microbial carotenoids affecting gut microbial composition” (Microbial Research Management Health NV, priority 2016, dated 2022)

Key:
gut microbiota = assay: Gut microbiome composition (fecal DGGE cluster analysis) in rats on high-fat diet; type: in vivo, Sprague-Dawley rats; details: daily oral gavage in peanut oil for 8 weeks, carotenoids 10-50 pg/d, lutein 25 μg/d, vs HF controls
Excerpt: To evaluate the effect of carotenoids from PD01 on gut microbiome composition in vivo, male Sprague-Dawley rats of 90 days of age were daily dosed for 8 weeks with carotenoids from PD01, either as carotenoid extract or as carotenoids contained in spores or vegetative cells. The experiment consisted of administration of a high-fat (HF) diet to the animals, which mimics a standardized western diet and is associated with the development of metabolic syndrome within 8 weeks of administration. In addition to a HF control group, separate groups of animals received the HF diet in combination with one of the carotenoid formulations from PD01. To do this, the carotenoid formulations were suspended in peanut oil and given by oral gavage to the rats in addition to the HF diet. The corresponding daily dose of carotenoids was in the range of […]. A control group receiving a standard low-fat (LF) diet was included to allow assessment of the specific effect of the HF diet on the gut microbiome composition. Additionally, one extra HF group was included, receiving the plant-derived carotenoid lutein, in the same amount as the bacterial carotenoids (i.e. 25 μg/d). This allows comparison of the effect of bacterial vs. plant-derived carotenoids on the gut microbiome composition. To monitor the effects of the different formulations on the gut microbiota, DGGE profiles were prepared. […]

[1] = system: Caco-2/THP1XB co-cultures; assay: Gut barrier function: TEER in Caco-2/THP1XB co-cultures (transwell); type: cell-based; details: 18 h after treatment of Caco-2/THP1XB co-cultures
Excerpt: The effect on the host of the carotenoids from PD01 (derived from either vegetative cells or spores) on gut barrier function, was studied in Caco-2/THP1XB co-cultures, according to methods described in Possemiers et al. (2013, J Agric Food Chem 61). Endpoint of the measurement was a change from control in the transepithelial electrical resistance (TEER) in a transwell setup.

## CC1=C[C@H](O)CC(C)(C)[C@H]1/C=C/C(C)=C/C=C/C(C)=C/C=C/C=C(C)/C=C/C=C(C)/C=C/C1=C(C)C[C@@H](O)CC1(C)C [lutein]
Gut microbiota
  gut microbiome composition (DGGE cluster analysis of fecal samples): clustered together with those of the HF controls

## Cc1c(C)c2c(c(C)c1O)CC[C@@](C)(CCC[C@H](C)CCC[C@H](C)CCCC(C)C)O2 [α-tocopherol]
[1]
  transepithelial electrical resistance (TEER), change from control: did not induce protection
